Results as given in patent US20210032257A1, “(E)-1-(4-(DIMETHYLAMINO)BUT-2-ENOYL)PYRROLIDIN-3-YL 4-((3-ISOPROPYL-5-METHYLPYRAZOLO[1,5-A]PYRIMIDIN-7-YL)AMINO)PIPERIDINE-1-CARBOXYLATE FOR INHIBITING CDK7” (Eli Lilly and Company, priority 2017, published 2021).

Legend:
Assay in all cases: Biomarker study proliferation (CellTiter-Glo)
Format in all cases: cell-based
SW900 = test system: SW900
In short: (§1)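 Luminescence from CellTiter-Glo, read 15 minutes after reagent addition, measures viable cells after a seven-day compound exposure at 37 °C. Plating is 5000 cells per well in recommended medium such as RPMI 1640 with 10% FBS.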

KYSE70 = test system: KYSE70
In short: as §1

SKMES1 = test system: SKMES1
In short: as §1

HCT116 = test system: HCT116
In short: as §1

NCIH2196 = test system: NCIH2196
In short: as §1

NCIH82 = test system: NCIH82
In short: as §1

SNU478 = test system: SNU478
In short: as §1

OAW42 = test system: OAW42
In short: as §1

NCIH1703 = test system: NCIH1703
In short: as §1

UACC893 = test system: UACC893
In short: as §1

A549 = test system: A549
In short: as §1

TOV21G = test system: TOV21G
In short: as §1

LNCAP = test system: LNCAP
In short: as §1

HCC1569 = test system: HCC1569
In short: as §1

SNU245 = test system: SNU245
In short: as §1

NCIH209 = test system: NCIH209
In short: as §1

KYSE270 = test system: KYSE270
In short: as §1

HEPG2 = test system: HEPG2
In short: as §1

[1] = 168 h, read-out: Anti-proliferation effect IC50

Cc1cc(NC2CCN(C(=O)O[C@H]3CCN(C(=O)/C=C/CN(C)C)C3)CC2)n2ncc(C(C)C)c2n1 [Example 1, [(3S)-1-[(E)-4-(dimethylamino)but-2-enoyl]pyrrolidin-3-yl] 4-[(3-isopropyl-5-methyl-pyrazolo[1,5-a]pyrimidin-7-yl)amino]piperidine-1-carboxylate]
IC50 (SW900; Homo sapiens, SW900, 168 h, read-out: Anti-proliferation effect IC50): 3.81 µM | Anti-proliferation effect % Inh. (SW900; SW900, LUNG, 7 days): 13% | Anti-proliferation effect Outcome (SW900; SW900, LUNG, 7 days): Insensitive (insensitive (IC50≥1 μM)) | IC50 (KYSE70; Homo sapiens, KYSE-70, 168 h, read-out: Anti-proliferation effect IC50): 126 nM | Anti-proliferation effect % Inh. (KYSE70; KYSE70, OESOPHAGUS, 7 days): 70% | Anti-proliferation effect Outcome (KYSE70; KYSE70, OESOPHAGUS, 7 days): Cytotoxic (cytotoxic (IC50<1 μM and % inhibition ≥70%)) | IC50 (SKMES1; Homo sapiens, SK-MES-1, 168 h, read-out: Anti-proliferation effect IC50): 28 nM | Anti-proliferation effect % Inh. (SKMES1; SKMES1, LUNG, 7 days): 80% | Anti-proliferation effect Outcome (SKMES1; SKMES1, LUNG, 7 days): Cytotoxic (cytotoxic (IC50<1 μM and % inhibition ≥70%)) | Anti-proliferation effect % Inh. (HCT116; HCT116, INTESTINE, 7 days): 88% | Anti-proliferation effect Outcome (HCT116; HCT116, INTESTINE, 7 days): Cytotoxic (cytotoxic (IC50<1 μM and % inhibition ≥70%)) | IC50 (HCT116; Homo sapiens, HCT-116, 168 h, read-out: Anti-proliferation effect IC50): 41 nM | IC50 (NCIH2196; Homo sapiens, NCI-H2196, 168 h, read-out: Anti-proliferation effect IC50): 123 nM | Anti-proliferation effect % Inh. (NCIH2196; NCIH2196, LUNG, 7 days): 63% | Anti-proliferation effect Outcome (NCIH2196; NCIH2196, LUNG, 7 days): Cytostatic (cytostatic (IC50<1 μM and % inhibition <70%)) | IC50 (NCIH82; Homo sapiens, NCI-H82, 168 h, read-out: Anti-proliferation effect IC50): 699 nM | Anti-proliferation effect % Inh. (NCIH82; NCIH82, LUNG, 7 days): 22% | Anti-proliferation effect Outcome (NCIH82; NCIH82, LUNG, 7 days): Cytostatic (cytostatic (IC50<1 μM and % inhibition <70%)) | IC50 (SNU478; [1]): 32 nM | Anti-proliferation effect % Inh. (SNU478; SNU478, BILIARY, 7 days): 92% | Anti-proliferation effect Outcome (SNU478; SNU478, BILIARY, 7 days): Cytotoxic (cytotoxic (IC50<1 μM and % inhibition ≥70%)) | IC50 (OAW42; Homo sapiens, OAW-42, 168 h, read-out: Anti-proliferation effect IC50): 136 nM | Anti-proliferation effect % Inh. (OAW42; OAW42, OVARY, 7 days): 88% | Anti-proliferation effect Outcome (OAW42; OAW42, OVARY, 7 days): Cytotoxic (cytotoxic (IC50<1 μM and % inhibition ≥70%)) | IC50 (NCIH1703; Homo sapiens, NCI-H1703, 168 h, read-out: Anti-proliferation effect IC50): 40 nM | Anti-proliferation effect % Inh. (NCIH1703; NCIH1703, LUNG, 7 days): 92% | Anti-proliferation effect Outcome (NCIH1703; NCIH1703, LUNG, 7 days): Cytotoxic (cytotoxic (IC50<1 μM and % inhibition ≥70%)) | IC50 (UACC893; Homo sapiens, UACC-893, 168 h, read-out: Anti-proliferation effect IC50): 4.15 µM | Anti-proliferation effect % Inh. (UACC893; UACC893, BREAST, 7 days): −51% | Anti-proliferation effect Outcome (UACC893; UACC893, BREAST, 7 days): Insensitive (insensitive (IC50≥1 μM)) | Anti-proliferation effect % Inh. (A549; A549, LUNG, 7 days): 64% | Anti-proliferation effect Outcome (A549; A549, LUNG, 7 days): Cytostatic (cytostatic (IC50<1 μM and % inhibition <70%)) | IC50 (A549; Homo sapiens, A549, 168 h, read-out: Anti-proliferation effect IC50): 139 nM | IC50 (TOV21G; Homo sapiens, 168 h, read-out: Anti-proliferation effect IC50): 61 nM | Anti-proliferation effect % Inh. (TOV21G; OVARY, 7 days): 73% | Anti-proliferation effect Outcome (TOV21G; OVARY, 7 days): Cytotoxic (cytotoxic (IC50<1 μM and % inhibition ≥70%)) | IC50 (LNCAP; Homo sapiens, LNCaP, 168 h, read-out: Anti-proliferation effect IC50): 59 nM | Anti-proliferation effect % Inh. (LNCAP; LNCAP, PROSTATE, 7 days): 74% | Anti-proliferation effect Outcome (LNCAP; LNCAP, PROSTATE, 7 days): Cytotoxic (cytotoxic (IC50<1 μM and % inhibition ≥70%)) | Anti-proliferation effect % Inh. (HCC1569; HCC1569, BREAST, 7 days): 45% | Anti-proliferation effect Outcome (HCC1569; HCC1569, BREAST, 7 days): Cytostatic (cytostatic (IC50<1 μM and % inhibition <70%)) | IC50 (HCC1569; Homo sapiens, HCC1569, 168 h, read-out: Anti-proliferation effect IC50): 67 nM | IC50 (SNU245; [1]): 1090 nM | Anti-proliferation effect % Inh. (SNU245; SNU245, BILIARY, 7 days): −5% | Anti-proliferation effect Outcome (SNU245; SNU245, BILIARY, 7 days): Insensitive (insensitive (IC50≥1 μM)) | IC50 (NCIH209; Homo sapiens, NCI-H209, 168 h, read-out: Anti-proliferation effect IC50): 40 nM | Anti-proliferation effect % Inh. (NCIH209; NCIH209, LUNG, 7 days): 83% | Anti-proliferation effect Outcome (NCIH209; NCIH209, LUNG, 7 days): Cytotoxic (cytotoxic (IC50<1 μM and % inhibition ≥70%)) | IC50 (KYSE270; Homo sapiens, KYSE-270, 168 h, read-out: Anti-proliferation effect IC50): > 10 µM | Anti-proliferation effect % Inh. (KYSE270; KYSE270, OESOPHAGUS, 7 days): −180% | Anti-proliferation effect Outcome (KYSE270; KYSE270, OESOPHAGUS, 7 days): Insensitive (insensitive (IC50≥1 μM)) | Anti-proliferation effect % Inh. (HEPG2; HEPG2, LIVER, 7 days): 78% | Anti-proliferation effect Outcome (HEPG2; HEPG2, LIVER, 7 days): Cytotoxic (cytotoxic (IC50<1 μM and % inhibition ≥70%)) | IC50 (HEPG2; Homo sapiens, HepG2, 168 h, read-out: Anti-proliferation effect IC50): 28 nM
